Assay: Optical transmittance spectrum (Helios spectrophotometer, 200-600 nm)
Assay type: physicochemical
Details: sharp decrease around 300 nm, below this value
Description: Furthermore, a sharp decrease of transmittance was detectable around 300 nm wavelength and it fell to zero below this value.
Compositions suitable for therapeutic purposes were selected by the measurement of optical transmittance. Measurements were performed using a Helios a spectrophotometer in the wavelength range of 200-600 nm. FIGS. […] and 2 show optical transmittance spectra of Macrogol 400 and the spray formulation of the composition, respectively. FIG. 3 illustrates the optical transmittance spectrum of the gel formulation of the composition.

SMILES: O=C(O)c1cccnc1 [nicotinic acid]
- transmittance around and below 300 nm wavelength: more pronounced

Source: patent US20150352026A1, “COMPOSITION FOR INCREASING OF THE EFFECTIVENESS OF UV-B THERAPY, PROCESS FOR THE PREPARATION THEREOF, AND ITS USE” (GLOBALDERM KOZMETOLÓGIAI KORLÁTOLT FELELÖSSÉGÜ TÁRSASÁG, priority 2013, published 2015)
